In the NIST ThermoML archive (doi:10.1021/je200195q):
Numbers after ± are expanded uncertainties.

Experiment: activity coefficient (dimensionless); of the first substance listed, at infinite dilution; xn = mol fraction of the nth substance listed
Conditions: 101 kPa, Liquid, Chromatography, x1 = 0

With `CCO` [ethanol] + CCCCn1cc[n+](C)c1.O=S(=O)([N-]S(=O)(=O)C(F)(F)C(F)(F)F)C(F)(F)C(F)(F)F the activity coefficient (322.55 K) was 1.65 ± 0.11, the activity coefficient (342.75 K) was 1.37 ± 0.089 and the activity coefficient (362.65 K) was 1.18 ± 0.075.
For `CCO` [ethanol] + CCCCCCCCCCn1cc[n+](CCCCCCCCCC)c1C.O=S(=O)([N-]S(=O)(=O)C(F)(F)F)C(F)(F)F, the activity coefficient (323.1 K) was 1.27 ± 0.082, the activity coefficient (333.15 K) was 1.15 ± 0.073 and the activity coefficient (343.15 K) was 1.04 ± 0.065.
`ClC(Cl)(Cl)Cl` [tetrachloromethane] + CCCCCC[n+]1ccn(C)c1.FC(F)(F)C(F)(F)[P-](F)(F)(F)(C(F)(F)C(F)(F)F)C(F)(F)C(F)(F)F showed an activity coefficient (312.8 K) of 2.19 ± 0.15, an activity coefficient (332.85 K) of 2.08 ± 0.14 and an activity coefficient (354.65 K) of 1.94 ± 0.13.
`ClC(Cl)(Cl)Cl` [tetrachloromethane] + CCn1cc[n+](C)c1.CS(=O)(=O)[O-] gave an activity coefficient (312.55 K) of 4.57 ± 0.31, an activity coefficient (322.45 K) of 4.79 ± 0.33 and an activity coefficient (332.45 K) of 0.669 ± 0.045.
`CCCCCCCCCCCCCC` [tetradecane] + CCCCn1cc[n+](C)c1.O=S(=O)([N-]S(=O)(=O)C(F)(F)C(F)(F)F)C(F)(F)C(F)(F)F showed an activity coefficient (322.55 K) of 153 ± 11, an activity coefficient (342.75 K) of 113 ± 7.7 and an activity coefficient (362.65 K) of 91.5 ± 6.3.
In the case of `C[N+](=O)[O-]` [nitromethane] + CCCCn1cc[n+](C)c1.O=S(=O)([N-]S(=O)(=O)C(F)(F)C(F)(F)F)C(F)(F)C(F)(F)F, the activity coefficient (322.55 K) is reported as 0.625 ± 0.043, the activity coefficient (342.75 K) is reported as 0.682 ± 0.046 and the activity coefficient (362.65 K) is reported as 0.699 ± 0.047.
`c1ccsc1` [thiophene] + CCCCCCCCCCn1cc[n+](CCCCCCCCCC)c1C.O=S(=O)([N-]S(=O)(=O)C(F)(F)F)C(F)(F)F showed an activity coefficient (323.1 K) of 0.422 ± 0.035, an activity coefficient (333.15 K) of 0.423 ± 0.035 and an activity coefficient (343.15 K) of 0.424 ± 0.035.
Molecule `c1ccccc1` [benzene] + CCCCCCCCCCn1cc[n+](CCCCCCCCCC)c1C.O=S(=O)([N-]S(=O)(=O)C(F)(F)F)C(F)(F)F has an activity coefficient (323.1 K) of 0.429 ± 0.035, an activity coefficient (333.15 K) of 0.431 ± 0.035 and an activity coefficient (343.15 K) of 0.434 ± 0.035.
In the case of `CCCCCCC` [heptane] + CCCCCC[n+]1ccn(C)c1.FC(F)(F)C(F)(F)[P-](F)(F)(F)(C(F)(F)C(F)(F)F)C(F)(F)C(F)(F)F, the activity coefficient (312.8 K) is reported as 8.84 ± 0.6, the activity coefficient (332.85 K) is reported as 7.73 ± 0.53 and the activity coefficient (354.65 K) is reported as 6.62 ± 0.45.
`CC1CCCC1` [methylcyclopentane] + CCCCCC[n+]1ccn(C)c1.FC(F)(F)C(F)(F)[P-](F)(F)(F)(C(F)(F)C(F)(F)F)C(F)(F)C(F)(F)F gave an activity coefficient (312.8 K) of 4.58 ± 0.31, an activity coefficient (332.85 K) of 4.09 ± 0.28 and an activity coefficient (354.65 K) of 3.52 ± 0.24.
With `c1ccncc1` [pyridine] + CCCCCC[n+]1ccn(C)c1.FC(F)(F)C(F)(F)[P-](F)(F)(F)(C(F)(F)C(F)(F)F)C(F)(F)C(F)(F)F the activity coefficient (312.8 K) was 0.302 ± 0.031, the activity coefficient (332.85 K) was 0.326 ± 0.032 and the activity coefficient (354.65 K) was 0.331 ± 0.032.
In the case of `CCOCC` [diethyl ether] + CCn1cc[n+](C)c1.CS(=O)(=O)[O-], the activity coefficient (312.55 K) is reported as 21.8 ± 1.5, the activity coefficient (322.45 K) is reported as 20.4 ± 1.4 and the activity coefficient (332.45 K) is reported as 18 ± 1.2.
In the case of `CC(C)O` [propan-2-ol] + CCCCCCCCCCn1cc[n+](CCCCCCCCCC)c1C.O=S(=O)([N-]S(=O)(=O)C(F)(F)F)C(F)(F)F, the activity coefficient (323.1 K) is reported as 1.27 ± 0.082, the activity coefficient (333.15 K) is reported as 1.14 ± 0.073 and the activity coefficient (343.15 K) is reported as 1.03 ± 0.065.
`CCN(CC)CC` [triethylamine] + CCn1cc[n+](C)c1.CS(=O)(=O)[O-] gave an activity coefficient (312.55 K) of 8.32 ± 0.57, an activity coefficient (322.45 K) of 14.3 ± 0.98 and an activity coefficient (332.45 K) of 18.8 ± 1.3.
With `CC#N` [acetonitrile] + CCn1cc[n+](C)c1.CS(=O)(=O)[O-] the activity coefficient (312.55 K) was 1.26 ± 0.081, the activity coefficient (322.45 K) was 0.818 ± 0.053 and the activity coefficient (332.45 K) was 0.836 ± 0.054.
Work on `CC(C)O` [propan-2-ol] + CCCCCC[n+]1ccn(C)c1.FC(F)(F)C(F)(F)[P-](F)(F)(F)(C(F)(F)C(F)(F)F)C(F)(F)C(F)(F)F yielded an activity coefficient (312.8 K) of 2.06 ± 0.14, an activity coefficient (332.85 K) of 1.62 ± 0.11 and an activity coefficient (354.65 K) of 1.26 ± 0.081.
In the case of `CCCCCCCCCCC` [undecane] + CCCCCC[n+]1ccn(C)c1.FC(F)(F)C(F)(F)[P-](F)(F)(F)(C(F)(F)C(F)(F)F)C(F)(F)C(F)(F)F, the activity coefficient (312.8 K) is reported as 31 ± 2.1, the activity coefficient (332.85 K) is reported as 25.5 ± 1.7 and the activity coefficient (354.65 K) is reported as 19.9 ± 1.4.
In the case of `C1CCCCC1` [cyclohexane] + CCCCCCCCCCn1cc[n+](CCCCCCCCCC)c1C.O=S(=O)([N-]S(=O)(=O)C(F)(F)F)C(F)(F)F, the activity coefficient (323.1 K) is reported as 1.32 ± 0.085, the activity coefficient (333.15 K) is reported as 1.28 ± 0.083 and the activity coefficient (343.15 K) is reported as 1.26 ± 0.081.
`CCC(=O)CC` [pentan-3-one] + CCCCCC[n+]1ccn(C)c1.FC(F)(F)C(F)(F)[P-](F)(F)(F)(C(F)(F)C(F)(F)F)C(F)(F)C(F)(F)F showed an activity coefficient (312.8 K) of 0.236 ± 0.029, an activity coefficient (332.85 K) of 0.28 ± 0.03 and an activity coefficient (354.65 K) of 0.301 ± 0.031.
Molecule `Cc1ccccc1C` [1,2-dimethylbenzene] + CCCCn1cc[n+](C)c1.O=S(=O)([N-]S(=O)(=O)C(F)(F)C(F)(F)F)C(F)(F)C(F)(F)F has an activity coefficient (322.55 K) of 1.87 ± 0.13, an activity coefficient (342.75 K) of 1.89 ± 0.13 and an activity coefficient (362.65 K) of 1.97 ± 0.13.
